The text below walks through data of patent US9546151B2, “VMAT inhibitory compounds” (Oregon Health & Science University, priority 2014, dated 2017).

The target of data set [1] is T1, VMAT2 (Homo sapiens, UniProt Q05940). The experiment in a line: hVMAT2 [3H]DTBZ ([3H]DHTB) binding assay. Further details: expressed in transfected cells; host or cells: HEK (human embryonic kidney) cells. The settings on record: cells printed in μM under a head in nM; HEK-hVMAT2 membranes. As to the method:
(§1) Membrane preparation for binding, uptake and release assays using HEK-hVMAT2 cells: Human embryonic kidney cells expressing the human vesicular monoamine transporter 2 (HEK-hVMAT2) were used. HEK-hVMAT2 cells were grown until confluent. The media was removed from plates, solution A [sucrose (0.32 M) with protease inhibitors] was added to the plate, and cells were scraped from plate. Cells were homogenized with 12 strokes of a glass/glass homogenizer. The homogenate was centrifuged at 800×g for 10 min. The supernatant was removed and saved, and the pellet was resuspended, homogenized and centrifuged as above. The supernatants were combined and centrifuged at 10,000×g for 20 min. The pellet was resuspended in solution A (0.75 ml). The membranes were osmotically shocked by addition of 2.625 ml ice cold water and homogenized by 5 strokes of a glass/Teflon homogenizer. The osmolarity was reestablished with addition of Tris (338 μl, 0.25M, pH 7.4 at 4° C.), sodium potassium tartrate (338 μl, 1.0 M), and MgSO4 (4 μl, 0.9M). The homogenate was centrifuged at 20,000×g for 20 min.
Binding was terminated by filtration over Whatman GF/C filters using a Tomtec 96-well cell harvester. Filters were washed for six seconds with ice-cold saline. Scintillation fluid was added to each square and radioactivity remaining on the filters was determined using a Wallac μ- or beta-plate reader. Specific binding was defined as the difference in binding observed in the presence and absence of Ro4-1284 (10 μM, generously supplied by Hoffman LaRoche). Three or more independent competition experiments were conducted with duplicate determinations.

Data set [2] has as its target T1, VMAT2. The experiment in a line: hVMAT2 5HT Uptake. It is filed as biochemical. The settings on record: [^3H]5HT uptake, HEK-hVMAT2 preparation; read-out: hVMAT2 5HT Uptake IC50 (nM) ± SEM. Further details: expressed in transfected cells; host or cells: HEK (human embryonic kidney) cells. The method, then: as §1

SMILES strings stand for the structures. Structures can show the parent of a compound that is named as a salt. Some results are limits rather than exact numbers.

T1 sequence (Q05940 whole entry): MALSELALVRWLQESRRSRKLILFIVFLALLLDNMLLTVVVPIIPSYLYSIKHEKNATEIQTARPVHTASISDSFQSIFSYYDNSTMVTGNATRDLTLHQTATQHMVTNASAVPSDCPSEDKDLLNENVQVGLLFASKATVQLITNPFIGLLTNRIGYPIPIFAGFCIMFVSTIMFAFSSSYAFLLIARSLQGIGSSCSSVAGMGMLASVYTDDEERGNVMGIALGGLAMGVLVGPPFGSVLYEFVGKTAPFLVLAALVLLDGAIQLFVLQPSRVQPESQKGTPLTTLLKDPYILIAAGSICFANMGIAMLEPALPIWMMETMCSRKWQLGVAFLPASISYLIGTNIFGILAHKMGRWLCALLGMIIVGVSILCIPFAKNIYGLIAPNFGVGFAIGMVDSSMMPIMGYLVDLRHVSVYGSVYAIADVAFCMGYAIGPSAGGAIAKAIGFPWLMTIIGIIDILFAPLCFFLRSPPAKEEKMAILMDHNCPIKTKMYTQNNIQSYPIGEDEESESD

The term melting point denotes the temperature of the solid-liquid transition. Take `CCOC(=O)[C@H]1CN(CCn2c(=O)[nH]c3ccccc3c2=O)CC[C@H]1c1cccc(OC(F)(F)F)c1` (racemic) (as salt: HCl) [Compound 5jj, (±)-syn-Ethyl 1-(2-(2,4-dioxo-1,2-dihydroquinazolin-3(4H)-yl)ethyl)-4-(3-(trifluoromethoxy)phenyl)piperidine-3-carboxylate]: the melting point is 155 to 156 °C.

`CCOC(=O)[C@H]1CN(CCn2c(=O)[nH]c3ccccc3c2=O)CC[C@H]1c1ccc(OC)cc1` (racemic) (as salt: HCl) [Compound 5r, (±)-syn-Ethyl 1-(2-(2,4-dioxo-1,2-dihydroquinazolin-3(4H),-yl)ethyl)-4-(4-methoxyphenyl) piperidine-3-carboxylate] displayed a melting point of 153 to 154 °C.

In turn, `CCOC(=O)[C@H]1CN(CCn2c(=O)[nH]c3ccccc3c2=O)CC[C@H]1c1ccc(CC)cc1` (racemic) (as salt: HCl) [Compound 5t, (±)-syn-Ethyl 1-(2-(2,4-dioxo-1,2-dihydroquinazolin-3(4H),-yl)ethyl)-4-(4-ethylphenyl) piperidine-3-carboxylate] displayed a melting point of 145 to 146 °C.

In turn, `CCOC(=O)[C@H]1CN(CCn2c(=O)[nH]c3ccccc3c2=O)CC[C@H]1c1ccc(C(C)C)cc1` (racemic) (as salt: HCl) [Compound 5u, (±)-syn-Ethyl 1-(2-(2,4-dioxo-1,2-dihydroquinazolin-3(4H),-yl)ethyl)-4-(4-isopropylphenyl) piperidine-3-carboxylate] gave a melting point of 153 to 154 °C.

For the compound `CCOC(=O)[C@H]1CN(CCn2c(=O)[nH]c3ccccc3c2=O)CC[C@H]1CCc1ccccc1` (racemic) (as salt: HCl) [Compound 5v, (±)-syn-Ethyl 1-(2-(2,4-dioxo-1,2-dihydroquinazolin-3(4H)-yl)ethyl)-4-phenethylpiperidine-3-carboxylate], the melting point is 140 to 141 °C.

As for `CCOC(=O)[C@H]1CN(CCn2c(=O)[nH]c3ccccc3c2=O)CC[C@H]1c1cccc(C)c1` (racemic) (as salt: HCl) [Compound 5y, (±)-syn-Ethyl 1-(2-(2,4-dioxo-1,2-dihydroquinazolin-3(4H),-yl)ethyl)-4-(m-tolyl)piperidine-3-carboxylate], the melting point is 148.5 to 150 °C.

For the compound `CCOC(=O)[C@H]1CN(CCn2c(=O)[nH]c3ccccc3c2=O)CC[C@H]1c1ccccc1C` (racemic) (as salt: HCl) [Compound 5z, (±)-syn-Ethyl 1-(2-(2,4-dioxo-1,2-dihydroquinazolin-3(4H),-yl)ethyl)-4-(o-tolyl)piperidine-3-carboxylate], the melting point fell in the range of 174 to 175 °C.

The compound `COC(=O)[C@H]1CN(CCn2c(=O)[nH]c3ccccc3c2=O)CC[C@H]1c1ccc(F)cc1` (racemic) (as salt: HCl) [Compound 10a, (±)-syn-Methyl 1-(2-(2,4-dioxo-1,2-dihydroquinazolin-3(4H),-yl)ethyl)-4-(4-fluorophenyl) piperidine-3-carboxylate] displayed a melting point of 191.5 to 193 °C.

Consider `CC(C)OC(=O)[C@H]1CN(CCn2c(=O)[nH]c3ccccc3c2=O)CC[C@H]1c1ccc(F)cc1` (racemic) (as salt: HCl) [Compound 10b, (±)-syn-Isopropyl 1-(2-(2,4-dioxo-1,2-dihydroquinazolin-3(4H),-yl)ethyl)-4-(4-fluorophenyl)piperidine-3-carboxylate], for which the melting point fell in the range of 157.5 to 159 °C.

Take `CCOC(=O)[C@H]1CN(CCN2C(=O)c3ccccc3C2=O)CC[C@H]1c1ccc(F)cc1` (racemic) (as salt: HCl) [Example 144, (±)-syn-Ethyl 1-(2-(1,3-dioxoisoindolin-2-yl)ethyl)-4-(4-fluorophenyl)piperidine-3-carboxylate]: the melting point lay within 104.5 to 105.5 °C.

As usually defined, the Ki is the dissociation constant of the complex between target and ligand, obtained from inhibition or displacement. Broadly, the IC50 is the concentration at which inhibition is half-maximal. In turn, `CCOC(=O)[C@@H]1CN(CCn2c(=O)[nH]c3ccccc3c2=O)CC[C@@H]1c1cccc(F)c1` (racemic) [Compound 5e] showed a melting point of 170.6 to 171.4 °C. The compound further returned an inhibition constant Ki at VMAT2 [1] above 10 µM. The 50% inhibitory concentration (IC50) at VMAT2 [2] was 63 ± 10 nM.

The compound `CCOC(=O)[C@@H]1CN(CCn2c(=O)[nH]c3ccccc3c2=O)CC[C@@H]1c1ccc(Cl)cc1` (racemic) [Compound 5oo, (±) syn-ethyl 4-(4-chlorophenyl)-1-(2-(2,4-dioxo-1,2-dihydroquinazolin-3(4H)-yl)ethyl)piperidine-3-carboxylate] had a melting point of 194.8 to 196.1 °C. Further, the Ki on VMAT2 [1] was above 10 µM. Also, the IC50 at VMAT2 [2] turned out to be 49 ± 1 nM.

In turn, `CCOC(=O)[C@@H]1CN(CCn2c(=O)[nH]c3ccccc3c2=O)CC[C@@H]1c1cccc(Cl)c1` (racemic) [Compound 5pp, (±) syn-ethyl 4-(3-chlorophenyl)-1-(2-(2,4-dioxo-1,2-dihydroquinazolin-3(4H)-yl)ethyl)piperidine-3-carboxylate] yielded a melting point of 161.8 to 162.9 °C. The compound further had an inhibitory constant (Ki) on VMAT2 [1] above 9 µM. The IC50 at VMAT2 [2] worked out at 34 ± 8 nM.

The compound `CCOC(=O)[C@@H]1CN(CCn2c(=O)[nH]c3ccccc3c2=O)CC[C@@H]1c1ccc(F)c(F)c1` (racemic) [Compound 5ss, (±)-syn-Ethyl 4-(3,4-difluorophenyl)-1-(2-(2,4-dioxo-1,2-dihydroquinazolin-3(4H)-yl)ethyl)piperidine-3-carboxylate] returned a melting point of 196.6 to 198.4 °C. This compound had a Ki on VMAT2 [1] above 10 µM. Moreover, the IC50 on VMAT2 [2] was determined as 100 ± 19 nM.

Compound `CCOC(=O)[C@@H]1CN(CCn2c(=O)[nH]c3ccccc3c2=O)CC[C@@H]1c1ccc([N+](=O)[O-])cc1` (racemic) [Compound 5tt, (±)-syn-Ethyl 4-(4-nitrophenyl)-1-(2-(2,4-dioxo-1,2-dihydroquinazolin-3(4H)-yl)ethyl)piperidine-3-carboxylate] gave a melting point of 216 to 217.4 °C. At VMAT2 [1], this compound had a Ki above 10 µM. Further, the half-inhibitory concentration (IC50) at VMAT2 [2] turned out to be 758 ± 165 nM.

Turning to `CCOC(=O)[C@H]1CN(CCn2c(=O)[nH]c3ccccc3c2=O)CC[C@H]1c1ccccc1F` (racemic) [Compound 5x, (±)-syn-Ethyl 1-(2-(2,4-dioxo-1,2-dihydroquinazolin-3(4H)-yl)ethyl)-4-(2-fluorophenyl)piperidine-3-carboxylate], the melting point lay in the range of 182.8 to 183.6 °C. On VMAT2 [1], the Ki is above 10 µM. The half-maximal inhibitory concentration (IC50) on VMAT2 [2] stood at 28 ± 12 nM.

In the case of `CCOC(=O)[C@@H]1CN(CCn2c(=O)c3ccccc3n(C)c2=O)CC[C@@H]1c1ccc(F)cc1` (racemic) [Compound 6a, (±) syn-ethyl 4-(4-fluorophenyl)-1-(2-(1-methyl-2,4-dioxo-1,2-dihydroquinazolin-3(4H)-yl)ethyl)piperidine-3-carboxylate], the melting point lay in the range of 131.1 to 133 °C.

In turn, `CCCn1c(=O)n(CCN2CC[C@H](c3ccc(F)cc3)[C@H](C(=O)OCC)C2)c(=O)c2ccccc21` (racemic) [Compound 6b, (±) syn-ethyl 1-(2-(2,4-dioxo-1-propyl-1,2-dihydroquinazolin-3(4H)-yl)ethyl)-4-(4-fluorophenyl)piperidine-3-carboxylate] registered a melting point of 96.8 to 97.7 °C.

As for `CCOC(=O)[C@@H]1CN(CCn2c(=O)c3ccccc3n(Cc3ccccc3)c2=O)CC[C@@H]1c1ccc(F)cc1` (racemic) [Compound 6c, (±) syn-ethyl 1-(2-(1-benzyl-2,4-dioxo-1,2-dihydroquinazolin-3(4H)-yl)ethyl)-4-(4-fluorophenyl)piperidine-3-carboxylate], the melting point was in the range of 134.9 to 136.4 °C. The Ki at VMAT2 [1] is above 7 µM. The IC50 at VMAT2 [2] was found to be 270 ± 53 nM.

Consider `CCOC(=O)[C@@H]1CN(CCn2c(=O)[nH]c3sccc3c2=O)CC[C@@H]1c1ccc(F)cc1` (racemic) [Compound 7a, (±) syn-ethyl 1-(2-(2,4-dioxo-1,2-dihydrothieno[2,3-d]pyrimidin-3(4H)-yl)ethyl)-4-(4-fluorophenyl)piperidine-3-carboxylate], for which the melting point lay in the range of 198.8 to 201.4 °C. The inhibitory constant (Ki) at VMAT2 [1] was above 10 µM. The IC50 on VMAT2 [2] was 133 ± 20 nM.

On to `CCOC(=O)[C@@H]1CN(CCn2c(=O)[nH]c3sccc3c2=O)CC[C@@H]1c1cccc(F)c1` (racemic) [Compound 7b, (±) syn-ethyl 1-(2-(2,4-dioxo-1,2-dihydrothieno[2,3-d]pyrimidin-3(4H)-yl)ethyl)-4-(3-fluorophenyl)piperidine-3-carboxylate], for which the melting point is 153.3 to 155.1 °C. Besides, the inhibition constant (Ki) on VMAT2 [1] was above 10 µM. At VMAT2 [2], the half-maximal inhibitory concentration (IC50) came out at 200 ± 51 nM.

The compound `O=c1[nH]c2ccccc2c(=O)n1CCN1CCC(c2ccc(F)cc2)CC1` [Compound 16, 3-(2-(4-(4-fluorophenyl)piperidin-1-yl)ethyl)quinazoline-2,4(1H,3H)-dione] came in with a melting point of 263 to 264 °C.
